# Laboratory results from PMC8329197, “Compounds targeting OSBPL7 increase ABCA1-dependent cholesterol efflux preserving kidney function in two models of kidney disease” (Nature Communications, 2021).
# Values joined by “and” are separate entries in the source; they are usually repeats but may differ in a detail not shown here. Equal values may be shown once.
# Legend:
# [1] = system: Adriamycin (ADR)-induced nephropathy in Balb/c mice; assay: ADR nephropathy: kidney cortex lipids (cholesterol ester, total cholesterol, triglycerides, Oil-red O); type: in vivo, mouse; conditions: mice challenged with ADR, treated for 28 days
# Experimental: OCT embedded kidney cortex samples were cryosectioned at 4 μm thickness and stained with Oil-Red O-isopropanol solution (Electron Microscopy Science, PA) diluted 6:4 in water, and then counterstained with Hematoxylin Harris Hg Free (VWR, PA). Sections were then evaluated using a light microscope (Olympus BX 41, Tokyo, Japan).
# Snap frozen kidney cortex samples were homogenized in 2 mM potassium phosphate buffer, pH 7, (10 µl buffer/mg tissue) using a glass douncer on ice. 100 μl of the homogenate were mixed thoroughly with 1 ml of hexane:isopropanol (3:2;v:v) per volume of tissue homogenate. The aqueous (pellet) and organic (supernatant) phases were separated by centrifugation at 12,000 × g for 5 min. Pellets (aqueous phase) were dried, reconstituted in 8 M urea, 0.1% SDS, 0.1 M NaOH, and total proteins were quantified by the BCA method (Thermofisher). The organic phase was dried by exposure to nitrogen. Lipids were then reconstituted in 100 µl isopropanol:NP-40 (9:1;v:v). Triglyceride content was assayed using a colorimetric kit according to the manufacturer’s instructions (Cayman Chemical USA). Total cholesterol and CE content were assayed using an enzymatic fluorometric method. For total cholesterol measurement, extracts were diluted 1:100 in assay buffer (100 mM potassium phosphate, 50 mM NaCl, 5 mM cholic acid, 0.1% Triton […], pH 7.4) containing cholesterol oxidase (1 U/ml), cholesterol esterase (1 U/ml), horseradish peroxidase (1 U/ml), and Amplex Red (75 µM). The reactions were incubated at 37 °C for 30 min in a black opaque 96-well plate (Greiner) and fluorescence was measured in a microplate reader (Spectramax i3X, Molecular Devices) at 530 nm excitation and 580 emission.
# For CE determination, 150 µl of the assay buffer described above, supplemented with bovine liver catalase (45 U/ml) and cholesterol oxidase (1 U/ml), was added to 25 μl of sample and incubated overnight at 37 °C to deplete free cholesterol leaving only cholesterol esters. Then, 75 µl of cholesterol ester detection reagent (1 U/ml cholesterol oxidase, 4 U/ml cholesterol esterase, 24 U/ml horseradish peroxidase, 300 µM Amplex Red) was added. The reaction was incubated at 37 °C for 30 min and the fluorescence signal was measured as described above. Internal standards included samples containing 1 mM of cholesterol and 5 μM of cholesterol oleate in order to verify the completeness of the enzymatic decomposition of free cholesterol as well as assay sensitivity and specificity.
# [2] = system: Adriamycin (ADR)-induced nephropathy in Balb/c mice; assay: Adriamycin-induced nephropathy, main study: albumin/creatinine ratio and body weight
# [3] = system: Adriamycin (ADR)-induced nephropathy in Balb/c mice; assay: Adriamycin-induced nephropathy, dose-finding pilot study: ACR and body weight time course; conditions: for ACR in pilot study: days 7-28; for Body Weight / ACR in spot urine: ADR, individual mice
# [4] = system: Adriamycin (ADR)-induced nephropathy in Balb/c mice; assay: ADR nephropathy: liver total cholesterol, cholesterol esters, triglycerides; type: in vivo, mouse; conditions: ADR model; individual animals
# [5] = 28 days after ADR, Cpd G 100 mg/Kg
# [6] = 30 mg/Kg/day, 7 days after inj, 30 mg/kg/day
# [7] = 30 mg/Kg/day, 14 days after inj, 30 mg/kg/day
# [8] = 30 mg/Kg/day, 21 days after inj, 30 mg/kg/day
# [9] = 30 mg/Kg/day, 28 days after inj, 30 mg/kg/day
# [10] = 100 mg/Kg/day, 7 days after inj, 100 mg/kg/day
# [11] = 100 mg/Kg/day, 14 days after inj, 100 mg/kg/day
# [12] = 100 mg/Kg/day, 21 days after inj, 100 mg/kg/day
# [13] = 100 mg/Kg/day, 28 days after inj, 100 mg/kg/day
compound,measurement,setting,value
O=C(N[C@@H]1CCCC[C@H]1O)c1cnc(OCC(F)(F)F)c(-c2ccc(Cl)c(Cl)c2)c1 [Cpd G],"Renal CE content, Median",[1]; group median,0.975 nmol CE/ mg protein
same,"Renal CE content (cholesterol ester, normalized to total proteins in kidney cortexes)",[1]; individual animals,0.88 nmol CE/ mg protein and 1.16 nmol CE/ mg protein and 1.07 nmol CE/ mg protein and 1.59 nmol CE/ mg protein and 0.87 nmol CE/ mg protein and 0.53 nmol CE/ mg protein and 0.78 nmol CE/ mg protein and 0.58 nmol CE/ mg protein and 1.14 nmol CE/ mg protein and 1.47 nmol CE/ mg protein
same,Effect on weight loss,[2]; 28 days after ADR,substantially reduced weight loss
same,Mice that showed no weight loss,[2]; [5],7 out of 10
same,Weight loss of the remaining 3 mice,[2]; [5],less than 5%
same,"ACR, median","[2]; 28 days after ADR, Cpd A 30, Cpd G 100, Cpd C 10 mg/Kg, group median",0.6 mg albumin/mg creatinine and 0.576 mg albumin/mg creatinine
same,Weight (d28),"[2]; animal weight when therapy finished, single animals",20 and 21 and 20.5 and 16 and 19 and 17
same,"Weight Change (as % of weight at day 0), Median","[2]; day 28 after ADR, Cpd A 30, Cpd G 100, Cpd C 10 mg/Kg",0%
same,Weight Change (as % of weight at day 0),"[2]; day 28 after ADR, Cpd A 30, Cpd G 100, Cpd C 10 mg/Kg, single animals",5% and 2.5% and 0% and -9.1% and -5%
same,ACR values (mg Albumin / mg Creatinine),"[2]; spot urine 28 days after ADR, oral daily Cpd A 30, Cpd G 100, Cpd C 10 mg/Kg, single animals",3.053 mg Albumin / mg Creatinine and 3.33 mg Albumin / mg Creatinine and 0.105 mg Albumin / mg Creatinine and 0.292 mg Albumin / mg Creatinine and 4.643 mg Albumin / mg Creatinine and 4.983 mg Albumin / mg Creatinine and 0.09 mg Albumin / mg Creatinine and 0.018 mg Albumin / mg Creatinine and 0.86 mg Albumin / mg Creatinine and 0.271 mg Albumin / mg Creatinine
same,Times lower ACR,"[2]; vs ADR+V, 28 days, Cpd A 30, Cpd G 100 mg/kg/day",30 times
same,ACR in pilot study,[3]; 30 mg/kg/day oral,to a lesser extent
same,ACR in pilot study,[3]; 100 mg/kg/day oral,significantly improved
same,Body Weight,"[3]; 30 mg/Kg/day, 0 days after inj, 30 mg/kg/day",20 grams and 18 grams and 19 grams (2×) and 23 grams
same,ACR in spot urine,[3]; [6],0.007 mg Albumin/ mg Creatinine in urine and 0.03 mg Albumin/ mg Creatinine in urine and 0.12 mg Albumin/ mg Creatinine in urine and 31.944 mg Albumin/ mg Creatinine in urine and 0.643 mg Albumin/ mg Creatinine in urine
same,Body Weight,[3]; [6],18 grams and 19 grams (3×) and 23 grams
same,ACR in spot urine,[3]; [7],51.688 mg Albumin/ mg Creatinine in urine and 33.252 mg Albumin/ mg Creatinine in urine and 84.069 mg Albumin/ mg Creatinine in urine and 36.836 mg Albumin/ mg Creatinine in urine and 5.571 mg Albumin/ mg Creatinine in urine
same,Body Weight,[3]; [7],18 grams and 19 grams (2×) and 16 grams and 23 grams
same,ACR in spot urine,[3]; [8],85.027 mg Albumin/ mg Creatinine in urine and 29.222 mg Albumin/ mg Creatinine in urine and 44.604 mg Albumin/ mg Creatinine in urine and 23.436 mg Albumin/ mg Creatinine in urine and 5.121 mg Albumin/ mg Creatinine in urine
same,Body Weight,[3]; [8],17 grams and 19 grams (2×) and 18 grams and 15 grams
same,ACR in spot urine,[3]; [9],34.615 mg Albumin/ mg Creatinine in urine and 3.13 mg Albumin/ mg Creatinine in urine and 6.059 mg Albumin/ mg Creatinine in urine and 7.143 mg Albumin/ mg Creatinine in urine and 2.473 mg Albumin/ mg Creatinine in urine
same,Body Weight,[3]; [9],16 grams and 20 grams (2×) and 17 grams and 15 grams
same,Body Weight,"[3]; 100 mg/Kg/day, 0 days after inj, 100 mg/kg/day",20 grams (3×) and 16 grams and 22 grams
same,ACR in spot urine,[3]; [10],0.061 mg Albumin/ mg Creatinine in urine and 0.016 mg Albumin/ mg Creatinine in urine and 0.015 mg Albumin/ mg Creatinine in urine and 0.233 mg Albumin/ mg Creatinine in urine and 9.666 mg Albumin/ mg Creatinine in urine
same,Body Weight,[3]; [10],19 grams (3×) and 16 grams and 22 grams
same,ACR in spot urine,[3]; [11],3.994 mg Albumin/ mg Creatinine in urine and 0.535 mg Albumin/ mg Creatinine in urine and 50.828 mg Albumin/ mg Creatinine in urine and 1.336 mg Albumin/ mg Creatinine in urine and 89.551 mg Albumin/ mg Creatinine in urine
same,Body Weight,[3]; [11],20 grams (2×) and 19 grams (2×) and 15 grams
same,ACR in spot urine,[3]; [12],0.238 mg Albumin/ mg Creatinine in urine and 0.124 mg Albumin/ mg Creatinine in urine and 0.794 mg Albumin/ mg Creatinine in urine and 8.14 mg Albumin/ mg Creatinine in urine
same,Body Weight,[3]; [12],20 grams (3×) and 15 grams and 19 grams
same,ACR in spot urine,[3]; [13],0.09 mg Albumin/ mg Creatinine in urine and 0.018 mg Albumin/ mg Creatinine in urine and 0.86 mg Albumin/ mg Creatinine in urine and 0.271 mg Albumin/ mg Creatinine in urine and 3.053 mg Albumin/ mg Creatinine in urine
same,Body Weight,[3]; [13],20 grams (2×) and 21 grams and 20.5 grams and 16 grams
same,LIVER CHOLESTEROL ESTERS,[4],2.88 nmol CE/ mg protein and 6.03 nmol CE/ mg protein and 6.11 nmol CE/ mg protein and 1.54 nmol CE/ mg protein and 4.33 nmol CE/ mg protein and 2.97 nmol CE/ mg protein and 3.06 nmol CE/ mg protein
same,LIVER TOTAL CHOLESTEROL,[4],118 nmol Cholesterol/ mg protein and 122 nmol Cholesterol/ mg protein and 97.7 nmol Cholesterol/ mg protein and 114 nmol Cholesterol/ mg protein and 146 nmol Cholesterol/ mg protein
same,LIVER TRIGLICERIDES,[4],35 nmol Triglycerides/ mg protein and 30 nmol Triglycerides/ mg protein and 48.4 nmol Triglycerides/ mg protein and 51 nmol Triglycerides/ mg protein and 39 nmol Triglycerides/ mg protein
